Experiments:
Glycine max [1] = test: Activity of soybean sterol C24-methyltransferase 1
[2] = Inhibition of soybean sterol C24-methyltransferase 1; design: species or system Glycine max
Glycine max [3] = test: Ratio of Kcat to Kinact for soybean sterol C24-methyltransferase 1
[4] = Inhibition of sunflower sterol C24-methyltransferase 1; design: species or system Helianthus annuus

SMILES	Km (Glycine max [1]) [µM]	kcat (Glycine max [1]) [s⁻¹]	Ki [2] [µM]	Ratio (Glycine max [3])	Ki [4] [µM]
CC(C)=CCC[C@@H](C)[C@H]1CC[C@@]2(C)[C@@H]3CC[C@H]4C(C)(C)[C@@H](O)CC[C@@]45C[C@@]35CC[C@]12C	30	0.001			
CC(C)=C(C)CC[C@@H](C)[C@H]1CC[C@@]2(C)[C@@H]3CC[C@H]4C(C)(C)[C@@H](O)CC[C@@]45C[C@@]35CC[C@]12C [CYCLOBRANOL]	37	0.0001	25	0.04	100
